Experiment: molar heat capacity at constant pressure
Conditions: 101.33 kPa, Metastable crystal, Vacuum adiabatic calorimetry

O=P([O-])([O-])[O-].[Tb+3] [terbium orthophosphate]
Conditions | molar heat capacity at constant pressure [J/K/mol]
7 K | 0.2233
8 K | 0.3348
8.48 K | 0.404
9 K | 0.4742
9.05 K | 0.511
9.71 K | 0.655
10 K | 0.6496
10.37 K | 0.779
11.05 K | 0.934
11.74 K | 1.116
12 K | 1.115
12.45 K | 1.328
13.16 K | 1.551
13.89 K | 1.784
14 K | 1.738
14.62 K | 2.037
15.36 K | 2.349
16 K | 2.51
16.12 K | 2.666
16.88 K | 2.985
17.64 K | 3.316
18 K | 3.404
18.41 K | 3.69
19.18 K | 4.058
19.96 K | 4.44
20 K | 4.388
21.2 K | 5.035
22.67 K | 5.753
24.17 K | 6.522
25 K | 7.043
25.69 K | 7.302
27.22 K | 8.099
28.76 K | 8.951
30 K | 9.779
30.31 K | 9.817
31.87 K | 10.74
33.44 K | 11.64
35 K | 12.55
35.02 K | 12.43
36.6 K | 13.44
38.18 K | 14.4
39.77 K | 15.33
40 K | 15.41
41.38 K | 16.26
42.98 K | 17.22
44.6 K | 18.17
45 K | 18.37
46.24 K | 19.19
47.86 K | 20.2
49.48 K | 21.22
50 K | 21.44
51.11 K | 22.24
52.74 K | 23.26
54.37 K | 24.23
55 K | 24.56
56 K | 25.23
57.64 K | 26.25
59.28 K | 27.25
60 K | 27.69
60.93 K | 28.25
62.57 K | 29.31
64.22 K | 30.35
65.88 K | 31.35
67.53 K | 32.33
69.19 K | 33.27
70 K | 33.8
71.05 K | 34.29
73.13 K | 35.52
75.2 K | 36.74
77.26 K | 38.04
79.33 K | 39.29
80 K | 39.56
81.4 K | 40.39
83.47 K | 41.31
83.73 K | 41.32
85.54 K | 42.27
85.78 K | 42.39
87.61 K | 43.75
87.83 K | 43.95
89.69 K | 44.86
89.89 K | 45.03
90 K | 44.91
91.76 K | 45.8
91.94 K | 46.03
93.84 K | 46.75
94 K | 47.04
95.93 K | 47.75
96.06 K | 48.09
98.01 K | 48.74
98.12 K | 49.05
100 K | 49.89
100.09 K | 49.85
100.18 K | 50.06
102.79 K | 51.27
102.86 K | 51.16
106.14 K | 52.71
109.43 K | 54.24
110 K | 54.53
112.71 K | 55.74
116.01 K | 57.18
119.3 K | 58.57
120 K | 58.89
122.6 K | 59.95
125.9 K | 61.32
129.2 K | 62.65
130 K | 63
132.49 K | 63.94
135.79 K | 65.24
139.09 K | 66.54
140 K | 66.91
142.39 K | 67.77
145.69 K | 69.04
148.98 K | 70.3
150 K | 70.62
152.28 K | 71.55
155.57 K | 72.72
158.87 K | 73.84
160 K | 74.17
162.16 K | 74.93
165.45 K | 76.02
168.73 K | 77.12
170 K | 77.56
172.02 K | 78.29
175.28 K | 79.23
178.56 K | 80.19
180 K | 80.8
181.84 K | 81.29
185.11 K | 82.39
188.38 K | 83.45
190 K | 83.89
191.65 K | 84.37
194.92 K | 85.28
198.18 K | 86.29
200 K | 86.85
201.43 K | 87.36
205.1 K | 88.44
209.15 K | 89.46
210 K | 89.66
213.21 K | 90.54
217.26 K | 91.68
220 K | 92.36
221.31 K | 92.89
225.34 K | 93.96
229.34 K | 95.06
230 K | 94.92
233.27 K | 95.82
237.28 K | 96.8
240 K | 97.37
241.28 K | 97.76
245.26 K | 98.58
249.23 K | 99.5
250 K | 99.7
253.16 K | 100.4
257.1 K | 101.2
260 K | 101.9
260.99 K | 102.1
264.86 K | 102.9
268.76 K | 103.8
270 K | 104
272.6 K | 104.6
276.41 K | 105.3
280 K | 106
280.2 K | 105.9
283.96 K | 106.6
287.7 K | 107.3
290 K | 107.9

— the NIST ThermoML archive (doi:10.1016/j.tca.2016.08.008)
